These results are taken from US7605005B2, “Method of screening for agents that modulate Tysnd1 level or activity in a cell” (Riken, priority 2005, dated 2009).

Experiment [1] has as its target T1, IDE (Homo sapiens, UniProt P14735).
T1 sequence (P14735 1-1019): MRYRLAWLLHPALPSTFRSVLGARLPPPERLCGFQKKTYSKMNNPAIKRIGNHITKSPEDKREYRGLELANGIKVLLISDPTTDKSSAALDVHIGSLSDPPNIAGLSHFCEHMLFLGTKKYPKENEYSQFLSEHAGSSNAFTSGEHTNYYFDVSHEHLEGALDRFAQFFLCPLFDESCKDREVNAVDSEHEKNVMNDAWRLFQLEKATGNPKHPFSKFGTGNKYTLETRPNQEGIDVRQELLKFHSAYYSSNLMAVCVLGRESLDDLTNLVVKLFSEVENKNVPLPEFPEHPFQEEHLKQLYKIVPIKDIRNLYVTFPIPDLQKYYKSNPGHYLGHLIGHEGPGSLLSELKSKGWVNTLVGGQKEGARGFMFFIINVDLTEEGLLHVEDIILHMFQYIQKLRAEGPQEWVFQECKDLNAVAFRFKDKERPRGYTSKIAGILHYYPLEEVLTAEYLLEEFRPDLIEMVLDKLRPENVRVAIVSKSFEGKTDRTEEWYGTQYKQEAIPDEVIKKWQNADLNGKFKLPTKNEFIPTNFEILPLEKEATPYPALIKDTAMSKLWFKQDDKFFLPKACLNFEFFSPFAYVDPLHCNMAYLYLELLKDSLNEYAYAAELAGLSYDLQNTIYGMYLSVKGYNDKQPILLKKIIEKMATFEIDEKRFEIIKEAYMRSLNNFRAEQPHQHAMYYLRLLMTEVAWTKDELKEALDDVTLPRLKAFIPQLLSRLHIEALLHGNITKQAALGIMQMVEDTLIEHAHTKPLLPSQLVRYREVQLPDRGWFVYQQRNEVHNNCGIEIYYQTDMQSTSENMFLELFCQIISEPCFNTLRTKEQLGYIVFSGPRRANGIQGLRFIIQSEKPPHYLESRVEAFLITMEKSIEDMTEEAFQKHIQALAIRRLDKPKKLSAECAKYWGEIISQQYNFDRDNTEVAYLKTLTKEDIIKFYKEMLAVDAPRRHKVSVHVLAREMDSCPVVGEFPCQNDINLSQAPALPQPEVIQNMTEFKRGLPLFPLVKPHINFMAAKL
The note with it: cited from earlier work.

For experiment [2], the system named is Tysnd1. The experiment can be described thus: Protease inhibition assay: processing of Acaa1 and Acox1 by recombinant Tysnd1. The format is biochemical, mouse. The note with it: preincubated 30 min at 25° C., then 12 h at 37° C., substrates Acaa1 and Acox1.
Experiment [3] relates to fatty acid oxidation. The note with it: reference 80; cited from earlier work.

Regarding `CC(C)C[C@H](NC(=O)[C@H]1O[C@@H]1C(=O)O)C(=O)NCCCCN=C(N)N` (relative stereo) [E64, trans-epoxysuccinyl-1-leucylamido-(4-guanidino) butane], the “Inhibition of peroxisomal protease IDE” value in experiment [1] is given as “not”. In experiment [2] (inhibitor 20 μM), the “Tysnd1 processing activity in the presence of protease inhibitor” value is recorded as “resistant”.
As for `c1cnc2c(c1)ccc1cccnc12` [1,10-phenanthroline], the “Tysnd1 processing activity in the presence of protease inhibitor” value in experiment [2] (inhibitor 1 mM) is reported as “Partial inhibition”.
Turning to `CCN1C(=O)C=CC1=O` [NEM, N-ethylmaleimide], in experiment [1], the “Inhibition of peroxisomal protease IDE” value is reported as “inhibited”. Further, the “Tysnd1 processing activity in the presence of protease inhibitor” value in experiment [2] (inhibitor 1 mM) was “completely abolished”.
Turning to `CC(=O)N[C@@H](CC(C)C)C(=O)N[C@@H](CC(C)C)C(=O)N[C@H](C=O)CCCNC(=N)N` [leupeptin], the “Inhibition of peroxisomal protease IDE” value in experiment [1] is given as “not”. Moreover, the “Tysnd1 processing activity in the presence of protease inhibitor” value in experiment [2] (inhibitor 10 μM) was “resistant”.
Regarding `COc1ccccc1OCC(O)CN1CCN(CC(=O)Nc2c(C)cccc2C)CC1` (stereo not drawn) [ranolazine], in experiment [3], the Fatty acid oxidation result was “inhibit”.
Regarding `COc1ccc(CN2CCNCC2)c(OC)c1OC` [trimetazidine], the Fatty acid oxidation entry in experiment [3] is on record as “inhibit”.
